# Reference: patent US4996217A, “Pyridyl-substituted imidazoles, compositions containing same and methods of use thereof” (Tanabe Seiyaku Company, Ltd., priority 1986, dated 1991)
# Target: T1, H+/K+ ATPase (Sus scrofa, UniProt P19156)
# T1 construct: prepared from the porcine gastric mucosa; from tissue; host or cells: porcine gastric mucosa
# Assay: effect on the enzyme activity of H+/K+ ATPase prepared from porcine gastric mucosa
# Type: biochemical
# Settings: read-out: IC50 (concentration required to induce 50% inhibition of H+/K+ ATPase enzymatic activity)
# T1 sequence (P19156 2-1034 limits assumed): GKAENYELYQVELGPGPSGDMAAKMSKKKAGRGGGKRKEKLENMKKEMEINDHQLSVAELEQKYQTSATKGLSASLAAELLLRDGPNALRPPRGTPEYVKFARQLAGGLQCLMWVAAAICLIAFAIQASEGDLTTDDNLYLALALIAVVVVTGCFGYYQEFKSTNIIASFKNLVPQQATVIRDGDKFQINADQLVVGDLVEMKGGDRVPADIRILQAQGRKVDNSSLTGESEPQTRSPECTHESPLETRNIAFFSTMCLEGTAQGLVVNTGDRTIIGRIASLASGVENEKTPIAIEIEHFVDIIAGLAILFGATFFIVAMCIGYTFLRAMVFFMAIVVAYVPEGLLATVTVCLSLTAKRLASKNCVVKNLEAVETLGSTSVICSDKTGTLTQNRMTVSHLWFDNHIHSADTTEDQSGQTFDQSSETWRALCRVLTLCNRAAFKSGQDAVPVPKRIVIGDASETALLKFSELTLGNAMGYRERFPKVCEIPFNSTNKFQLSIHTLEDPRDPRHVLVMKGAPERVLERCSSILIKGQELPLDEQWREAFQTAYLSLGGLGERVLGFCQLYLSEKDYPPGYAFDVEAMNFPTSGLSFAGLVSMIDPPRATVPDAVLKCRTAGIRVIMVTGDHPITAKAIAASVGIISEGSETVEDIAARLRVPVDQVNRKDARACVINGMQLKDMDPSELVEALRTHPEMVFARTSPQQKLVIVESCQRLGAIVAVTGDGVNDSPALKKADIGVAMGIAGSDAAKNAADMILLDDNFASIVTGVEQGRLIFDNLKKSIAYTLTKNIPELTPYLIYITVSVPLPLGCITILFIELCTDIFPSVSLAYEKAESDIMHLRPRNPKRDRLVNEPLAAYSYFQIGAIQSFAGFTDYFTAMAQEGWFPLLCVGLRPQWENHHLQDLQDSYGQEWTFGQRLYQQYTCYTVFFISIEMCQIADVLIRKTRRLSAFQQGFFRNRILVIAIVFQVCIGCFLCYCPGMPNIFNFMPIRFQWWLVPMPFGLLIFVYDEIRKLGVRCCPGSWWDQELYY
# T1 sequence (P18434 whole entry partner): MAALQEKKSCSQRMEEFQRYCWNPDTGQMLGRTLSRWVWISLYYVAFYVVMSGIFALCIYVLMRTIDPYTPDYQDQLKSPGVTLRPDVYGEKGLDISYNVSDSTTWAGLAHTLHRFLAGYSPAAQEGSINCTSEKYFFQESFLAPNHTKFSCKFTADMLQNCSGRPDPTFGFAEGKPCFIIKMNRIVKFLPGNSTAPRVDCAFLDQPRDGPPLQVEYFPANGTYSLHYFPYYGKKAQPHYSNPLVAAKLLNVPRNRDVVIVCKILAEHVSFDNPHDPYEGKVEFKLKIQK
row,SMILES,IC50 [µM]
1,"CCN(CC)c1ccccc1C[S+]([O-])c1nc2c(n1-c1ccccn1)CCC2 (stereo not drawn) [1,4,5,6-tetrahydro-1-(2-pyridyl)-2-(2-(diethylamino)benzylsulfinyl)cyclopenta(d)imidazole]",~10
2,[O-][S+](Cc1ccccc1NC1CCCCC1)c1nccn1-c1ccccn1 (stereo not drawn) [1-(2-pyridyl)-2-(2-(cyclohexylamino)benzylsulfinyl)imidazole],< 10
3,CCN(CC)c1ccccc1C[S+]([O-])c1nccn1-c1cc(OC)cc(C)n1 (stereo not drawn) [1-(4-methoxy-6-methyl-2-pyridyl)-2-(2-(diethylamino)benzylsulfinyl)imidazole],< 10

# Test system: gastrin-induced gastric acid secretion
# Assay: effect on gastrin-induced gastric acid secretion, oral administration to rats
# Type: in vivo
# Settings: dose of 30 mg/kg
row,SMILES,decrease in gastric acid secretion as compared with non-administered group of rats
1,"CCN(CC)c1ccccc1C[S+]([O-])c1nc2c(n1-c1ccccn1)CCC2 (stereo not drawn) [1,4,5,6-tetrahydro-1-(2-pyridyl)-2-(2-(diethylamino)benzylsulfinyl)cyclopenta(d)imidazole]",more than 70%
2,[O-][S+](Cc1ccccc1-n1cccc1)c1nccn1-c1ccccn1 (stereo not drawn) [1-(2-pyridyl)-2-(2-(1-pyrrolyl)-benzylsulfinyl)imidazole],more than 70%
3,Cc1cccnc1-n1ccnc1[S+]([O-])Cc1ccccc1N(C)C (stereo not drawn) [1-(3-methyl-2-pyridyl)-2-(2-(dimethylamino)benzylsulfinyl)imidazole],more than 70%
